Among the test systems are DU-145 prostate; HCC-2998 colon; HCT-116 colon; MALME-3M melanoma; NCI-H23 lung; NCI-H460 lung; OVCAR-8 ovarian; SK-MEL-28 melanoma; UO-31 renal; SR leukemia.
What all share (test): DTP human tumour cell line panel, 48 h

Each structure is given as a SMILES string. Values joined by “and” are separate entries in the source; they are usually repeats but may differ in a detail not shown here. Equal entries are not always repeated.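 Results reflect a 48-hour exposure of cells in 96-well plates to compound at five concentrations. GI50 marks 50% less growth. TGI is the concentration that stops growth completely.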 Where only a bound is given, the exact number is not on record here.

One may read the TGI as the concentration giving total growth inhibition. The GI50 is the concentration that inhibits growth by half.

Consider `CCO/C(O)=C(/C(=N)N1CCCC1)C(=O)Nc1cccc(C(F)(F)F)c1`, for which the TGI in the test with DU-145 prostate, in the test with HCC-2998 colon, in the test with HCT-116 colon, with MALME-3M melanoma, in the test on NCI-H23 lung and in the test with NCI-H460 lung was more than 100 µM in each case. The TGI with OVCAR-8 ovarian and with SK-MEL-28 melanoma was more than 100 µM throughout.

Turning to `C=CC[C@@]1(C(=O)OC)[C@H](Sc2ccccc2)C1(C)C`, the TGI with DU-145 prostate was more than 100 µM; in the test on HCC-2998 colon, 96.2 µM; with HCT-116 colon, more than 100 µM; in the test with MALME-3M melanoma it was 84.9 µM; in the test with NCI-H23 lung, 97.3 µM; in the test on NCI-H460 lung it was more than 100 µM. Besides, the total growth inhibition concentration (TGI) in the test with OVCAR-8 ovarian, in the test on SK-MEL-28 melanoma and in the test on UO-31 renal was more than 100 µM each time.

Regarding `CCc1ccc2c(c1)CC1(C2)Cc2cc3c(cc2C1)C(=O)CC3` (stereo unspecified), the TGI with HCC-2998 colon worked out at 47.1 µM; in the test on HCT-116 colon, 29.9 µM; in the test on MALME-3M melanoma, 57.1 µM; in the test on NCI-H23 lung, 96.6 µM; with OVCAR-8 ovarian, 64.9 µM; in the test on UO-31 renal, 92.9 µM.

In the case of `Cc1c(NC2(C)C(=O)N(/N=C/c3ccccc3)N=C2c2ccccc2)n[nH]c1-c1ccccc1` (stereo unspecified), the total growth inhibition concentration (TGI) in the test on DU-145 prostate, with HCC-2998 colon, in the test on HCT-116 colon, in the test with MALME-3M melanoma, in the test on NCI-H23 lung and with NCI-H460 lung was more than 100 µM in each case. The concentration for total growth inhibition (TGI) with OVCAR-8 ovarian, with SK-MEL-28 melanoma and with UO-31 renal was more than 100 µM throughout.

Take `O=C(NCc1ccc(Cl)cc1)c1cc2sccc2nc1C(F)(F)F`: the TGI in the test on HCT-116 colon is more than 100 µM; with MALME-3M melanoma, more than 100 µM; in the test on NCI-H23 lung it was more than 100 µM; with OVCAR-8 ovarian, 72.1 µM; with SK-MEL-28 melanoma, more than 100 µM; with SR leukemia, more than 100 µM. The TGI with UO-31 renal is more than 100 µM.

In the case of `S=C(S)NCC1CCC(CNC(=S)S)CC1` (stereo unspecified), the TGI was 63.4 µM in the test with DU-145 prostate; 48.3 µM in the test on HCC-2998 colon; 42.5 µM with HCT-116 colon; 63.1 µM in the test on MALME-3M melanoma; more than 100 µM in the test with NCI-H23 lung; more than 100 µM in the test on NCI-H460 lung. In addition, the TGI in the test with OVCAR-8 ovarian is 47.9 µM; with SK-MEL-28 melanoma, more than 100 µM; in the test on UO-31 renal it was 47.5 µM.

`Cc1ccc(S(=O)(=O)c2c(O)c3ccccc3n(C)c2=O)cc1`: the TGI in the test on DU-145 prostate, with HCT-116 colon, in the test with MALME-3M melanoma, in the test with NCI-H23 lung, in the test with NCI-H460 lung and with OVCAR-8 ovarian was more than 100 µM in each case. For the same compound, the TGI with SK-MEL-28 melanoma and in the test on UO-31 renal was more than 100 µM throughout.

As to `C[n+]1c2ccccc2c(C(=O)Nc2ccc(S(=O)(=O)N=C(N)N)cc2)c2ccccc21`, the TGI in the test with DU-145 prostate, in the test on HCC-2998 colon, with HCT-116 colon, in the test on MALME-3M melanoma, with NCI-H23 lung and in the test with NCI-H460 lung was more than 100 µM throughout. The TGI in the test with OVCAR-8 ovarian, in the test on SK-MEL-28 melanoma and with UO-31 renal was more than 100 µM each time.

Take `COc1ccc2c(c1)/c(=C/c1ccc(N(C)C)cc1)c1cc(-c3ccccc3)[n+](C)n12`: the GI50 with DU-145 prostate is 0.108 µM. In addition, the TGI in the test with DU-145 prostate was 2.51 µM and 1.84 µM; in the test with HCT-116 colon, 2.59 µM; in the test with OVCAR-8 ovarian, 0.44 µM; in the test with SK-MEL-28 melanoma, 2.31 µM; in the test with SR leukemia, 2.84 µM; in the test with UO-31 renal, 3.28 µM.

On to `NCCCCNCCCNC(=O)c1nc(-c2csc(CCN)n2)sc1Cl`, for which the TGI in the test on HCC-2998 colon, with HCT-116 colon, in the test on MALME-3M melanoma, in the test on NCI-H23 lung, with NCI-H460 lung and with OVCAR-8 ovarian was more than 100 µM in each case. Moreover, the total growth inhibition concentration (TGI) in the test with SK-MEL-28 melanoma, with SR leukemia and in the test with UO-31 renal was more than 100 µM throughout.

On to `CC(=O)O[C@H]1C(=O)[C@@]2(C)[C@H]([C@H](OC(=O)c3ccccc3)[C@]3(O)C[C@H](OC(=O)[C@H](O)[C@@H](NC(=O)CC(C)(C)C)c4ccccc4)C(C)=C1C3(C)C)C1(OC(C)=O)CO[C@@H]1C[C@@H]2O` (stereo partly specified), for which the total growth inhibition concentration (TGI) in the test on DU-145 prostate was 0.0833 µM; in the test on HCC-2998 colon it was 0.0418 µM; in the test on HCT-116 colon, more than 3.34 µM; with NCI-H23 lung, more than 10 µM; in the test on NCI-H460 lung, more than 10 µM; in the test with OVCAR-8 ovarian, more than 5.8 µM. The TGI with SK-MEL-28 melanoma and with UO-31 renal was more than 10 µM throughout.

For `O=C1C(Br)=C(c2ccccc2)S(=O)c2ccccc21` (stereo unspecified), the TGI in the test on DU-145 prostate is 27.9 µM; in the test on HCC-2998 colon, 27.9 µM; with HCT-116 colon, 20.4 µM; in the test with MALME-3M melanoma, 22.4 µM; with NCI-H23 lung, 39.7 µM; in the test on NCI-H460 lung, 40.6 µM. Further, the results for the total growth inhibition concentration (TGI) in the test with OVCAR-8 ovarian, with SK-MEL-28 melanoma and with UO-31 renal were 31.3 µM, 42.1 µM and 27.2 µM, respectively.

Consider `O=C(NCCCNCCNC(=O)c1cc(-c2ccccc2)nc2ccccc12)c1cc(-c2ccccc2)nc2ccccc12`, for which the TGI is 3.11 µM with HCC-2998 colon; 3.04 µM in the test with HCT-116 colon; 3.43 µM in the test with MALME-3M melanoma; 3.31 µM in the test with NCI-H460 lung; 3.16 µM in the test on OVCAR-8 ovarian; 3.26 µM in the test on SK-MEL-28 melanoma. For the same compound, the TGI with SR leukemia came to 8.73 µM; in the test with UO-31 renal, 3.89 µM.

In the case of `Cc1c2c(OCCCCN3CCN(c4ncccn4)CC3)nn(C)c(=O)c2c(C)n1-c1ccccc1`, the TGI came to 35.8 µM in the test on DU-145 prostate; 35 µM in the test with HCC-2998 colon; 31.7 µM with HCT-116 colon; 35.7 µM in the test on MALME-3M melanoma; 37 µM in the test with NCI-H23 lung; 35.6 µM in the test with NCI-H460 lung. For the same compound, the TGI in the test on OVCAR-8 ovarian turned out to be 61.3 µM; with SK-MEL-28 melanoma, 34.5 µM; in the test on UO-31 renal it was 30.8 µM.

With `CC(=O)Oc1ccc(C2COc3cc(OC(C)=O)c(OC(C)=O)cc3C2)cc1` (stereo unspecified), the TGI with HCC-2998 colon turned out to be 46.8 µM; with HCT-116 colon, 33.9 µM; in the test on MALME-3M melanoma, 31 µM; with NCI-H23 lung, 37.7 µM; in the test with NCI-H460 lung, 47.3 µM; with OVCAR-8 ovarian, 35.6 µM. Moreover, the total growth inhibition concentration (TGI) in the test on SK-MEL-28 melanoma is 34.2 µM; in the test on UO-31 renal, 59.4 µM.

As to `Cc1ccc(N=Nc2c(C)c(C#N)c(=S)n(C3OC(CO)C(O)C(O)C3O)c2-c2ccccc2)cc1` (stereo unspecified), the TGI is more than 100 µM in the test with DU-145 prostate; more than 100 µM in the test on HCC-2998 colon; 29 µM with HCT-116 colon; 47.7 µM in the test with MALME-3M melanoma; 40.4 µM with NCI-H23 lung; more than 100 µM in the test with NCI-H460 lung. Moreover, the TGI was determined as 43 µM in the test with SK-MEL-28 melanoma and 86.9 µM in the test with UO-31 renal.

Values taken from PubChem BioAssay (NCI).
